Measurements as given in US8415469B2, “Compounds and methods for kinase modulation, and indications therefor” (Plexxikon Inc., priority 2005, dated 2013).

What was measured:
Assay type in all cases: biochemical
B-Raf = target: T1, B-Raf (Homo sapiens, UniProt P15056); test: AlphaScreen kinase assay, B-Raf; conditions: read-out: IC50, activity toward kinase B-Raf
T1 construct: purchased Upstate Biotechnology

FGFR1 = target: T2, FGFR1 (Homo sapiens, UniProt P11362, C488A/C584S); test: AlphaScreen kinase assay, FGFR1; conditions: read-out: IC50, activity toward kinase FGFR
T2 construct: P1351.pET N6 BI-PTP FGFR A458-E765-X C488A, C584S; made in house; host or cells: E. coli (PTP1B co-expressed)
T2 sequence (P11362 458-765 C488A/C584S): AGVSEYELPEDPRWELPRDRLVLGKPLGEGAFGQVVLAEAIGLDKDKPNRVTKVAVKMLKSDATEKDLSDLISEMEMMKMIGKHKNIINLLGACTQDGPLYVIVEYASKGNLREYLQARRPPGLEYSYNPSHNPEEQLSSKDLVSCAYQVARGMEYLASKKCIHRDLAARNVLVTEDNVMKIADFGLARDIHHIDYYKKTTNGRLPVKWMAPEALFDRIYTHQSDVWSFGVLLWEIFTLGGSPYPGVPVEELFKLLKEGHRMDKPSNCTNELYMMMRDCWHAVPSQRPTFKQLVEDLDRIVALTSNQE

Fms = target: T3, Fms (Homo sapiens, UniProt P07333); test: AlphaScreen kinase assay, Fms; conditions: read-out: IC50, activity toward kinase Fms
T3 construct: purchased Upstate Biotechnology
T3 sequence (P07333 20-972): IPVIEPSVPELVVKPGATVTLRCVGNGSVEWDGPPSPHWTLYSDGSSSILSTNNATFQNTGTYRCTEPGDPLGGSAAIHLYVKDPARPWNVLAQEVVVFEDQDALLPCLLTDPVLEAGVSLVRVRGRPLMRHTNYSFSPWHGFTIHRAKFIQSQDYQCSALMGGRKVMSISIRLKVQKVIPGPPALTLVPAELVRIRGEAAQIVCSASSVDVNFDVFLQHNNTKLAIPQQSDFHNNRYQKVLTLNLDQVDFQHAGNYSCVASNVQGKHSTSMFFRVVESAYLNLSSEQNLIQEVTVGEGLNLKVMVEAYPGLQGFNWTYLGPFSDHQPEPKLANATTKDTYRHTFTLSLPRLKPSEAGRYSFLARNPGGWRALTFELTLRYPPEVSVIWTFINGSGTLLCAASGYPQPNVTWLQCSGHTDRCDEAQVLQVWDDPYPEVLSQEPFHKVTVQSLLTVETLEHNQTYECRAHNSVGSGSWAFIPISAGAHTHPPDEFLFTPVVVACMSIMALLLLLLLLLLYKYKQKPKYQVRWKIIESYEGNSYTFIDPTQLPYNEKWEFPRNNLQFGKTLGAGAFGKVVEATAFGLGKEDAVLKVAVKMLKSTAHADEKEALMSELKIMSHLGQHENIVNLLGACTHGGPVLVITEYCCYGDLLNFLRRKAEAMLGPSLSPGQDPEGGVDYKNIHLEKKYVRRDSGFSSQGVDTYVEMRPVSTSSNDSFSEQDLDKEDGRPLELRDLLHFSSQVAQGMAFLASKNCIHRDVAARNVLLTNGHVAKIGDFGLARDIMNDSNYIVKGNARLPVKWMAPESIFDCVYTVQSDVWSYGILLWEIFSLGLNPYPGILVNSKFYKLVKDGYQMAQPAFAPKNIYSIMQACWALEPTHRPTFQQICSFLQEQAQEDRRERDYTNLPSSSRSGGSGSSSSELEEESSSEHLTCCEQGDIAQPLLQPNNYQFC

Kdr = target: T4, Kdr (Homo sapiens, UniProt P35968); test: Z'-Lyte FRET kinase assay (Invitrogen), Kdr; conditions: read-out: IC50, activity toward kinase Kdr
T4 construct: purchased Invitrogen (assay run by Invitrogen)
T4 sequence (P35968 20-1356): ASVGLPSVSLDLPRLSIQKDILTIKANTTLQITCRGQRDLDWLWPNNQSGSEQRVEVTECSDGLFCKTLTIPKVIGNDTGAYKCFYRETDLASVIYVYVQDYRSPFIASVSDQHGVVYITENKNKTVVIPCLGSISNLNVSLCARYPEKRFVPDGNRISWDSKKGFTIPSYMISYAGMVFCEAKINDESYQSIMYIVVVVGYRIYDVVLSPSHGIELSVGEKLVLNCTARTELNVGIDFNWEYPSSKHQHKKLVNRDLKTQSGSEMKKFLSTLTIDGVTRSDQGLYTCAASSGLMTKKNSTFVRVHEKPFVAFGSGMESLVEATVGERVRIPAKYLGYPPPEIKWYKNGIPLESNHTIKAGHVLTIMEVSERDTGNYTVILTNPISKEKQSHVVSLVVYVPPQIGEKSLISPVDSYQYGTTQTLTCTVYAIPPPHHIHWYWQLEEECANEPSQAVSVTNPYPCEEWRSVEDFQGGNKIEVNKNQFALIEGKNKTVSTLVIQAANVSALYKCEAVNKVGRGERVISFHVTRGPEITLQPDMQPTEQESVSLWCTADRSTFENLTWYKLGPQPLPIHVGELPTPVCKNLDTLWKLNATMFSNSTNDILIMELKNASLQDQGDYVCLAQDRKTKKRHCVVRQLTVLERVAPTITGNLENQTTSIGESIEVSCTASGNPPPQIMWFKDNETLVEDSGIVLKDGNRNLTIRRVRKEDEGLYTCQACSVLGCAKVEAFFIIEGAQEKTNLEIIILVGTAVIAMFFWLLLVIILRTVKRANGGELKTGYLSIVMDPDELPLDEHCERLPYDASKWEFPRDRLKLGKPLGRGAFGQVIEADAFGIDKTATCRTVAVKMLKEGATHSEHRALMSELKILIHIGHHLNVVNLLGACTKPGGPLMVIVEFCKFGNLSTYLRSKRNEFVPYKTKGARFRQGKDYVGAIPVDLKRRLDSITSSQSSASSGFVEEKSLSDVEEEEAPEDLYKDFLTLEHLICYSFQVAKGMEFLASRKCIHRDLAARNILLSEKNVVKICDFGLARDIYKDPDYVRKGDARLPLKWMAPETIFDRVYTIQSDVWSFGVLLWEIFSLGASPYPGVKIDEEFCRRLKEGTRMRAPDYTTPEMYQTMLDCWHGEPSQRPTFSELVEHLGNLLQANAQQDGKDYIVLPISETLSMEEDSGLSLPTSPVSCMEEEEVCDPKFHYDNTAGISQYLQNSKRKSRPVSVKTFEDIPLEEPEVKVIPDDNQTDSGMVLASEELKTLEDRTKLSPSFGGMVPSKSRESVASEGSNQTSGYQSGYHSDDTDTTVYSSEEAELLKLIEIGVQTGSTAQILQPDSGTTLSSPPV

Ret = target: T5, Ret (Homo sapiens, UniProt P07949); test: AlphaScreen kinase assay, Ret; conditions: read-out: IC50, activity toward kinase Ret
T5 construct: P1378.pET-SF BI-PTP RET H661-R1012 HIS; made in house
T5 sequence (P07949 with tags, fused parts or gaps): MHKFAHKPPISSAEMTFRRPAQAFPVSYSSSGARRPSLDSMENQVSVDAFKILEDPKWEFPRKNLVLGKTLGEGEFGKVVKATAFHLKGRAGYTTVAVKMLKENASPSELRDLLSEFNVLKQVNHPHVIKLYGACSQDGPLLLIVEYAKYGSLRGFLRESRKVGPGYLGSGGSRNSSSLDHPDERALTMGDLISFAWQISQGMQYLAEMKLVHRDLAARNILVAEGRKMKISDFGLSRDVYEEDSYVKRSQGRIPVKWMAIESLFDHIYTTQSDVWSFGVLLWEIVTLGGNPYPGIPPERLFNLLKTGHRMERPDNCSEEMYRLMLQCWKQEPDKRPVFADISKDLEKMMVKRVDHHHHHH

Btk = target: T6, Btk (Homo sapiens, UniProt Q06187); test: Z'-Lyte FRET kinase assay (Invitrogen), Btk; conditions: read-out: IC50, activity toward kinase Btk
T6 construct: purchased Invitrogen (assay run by Invitrogen)
T6 sequence (Q06187 whole entry): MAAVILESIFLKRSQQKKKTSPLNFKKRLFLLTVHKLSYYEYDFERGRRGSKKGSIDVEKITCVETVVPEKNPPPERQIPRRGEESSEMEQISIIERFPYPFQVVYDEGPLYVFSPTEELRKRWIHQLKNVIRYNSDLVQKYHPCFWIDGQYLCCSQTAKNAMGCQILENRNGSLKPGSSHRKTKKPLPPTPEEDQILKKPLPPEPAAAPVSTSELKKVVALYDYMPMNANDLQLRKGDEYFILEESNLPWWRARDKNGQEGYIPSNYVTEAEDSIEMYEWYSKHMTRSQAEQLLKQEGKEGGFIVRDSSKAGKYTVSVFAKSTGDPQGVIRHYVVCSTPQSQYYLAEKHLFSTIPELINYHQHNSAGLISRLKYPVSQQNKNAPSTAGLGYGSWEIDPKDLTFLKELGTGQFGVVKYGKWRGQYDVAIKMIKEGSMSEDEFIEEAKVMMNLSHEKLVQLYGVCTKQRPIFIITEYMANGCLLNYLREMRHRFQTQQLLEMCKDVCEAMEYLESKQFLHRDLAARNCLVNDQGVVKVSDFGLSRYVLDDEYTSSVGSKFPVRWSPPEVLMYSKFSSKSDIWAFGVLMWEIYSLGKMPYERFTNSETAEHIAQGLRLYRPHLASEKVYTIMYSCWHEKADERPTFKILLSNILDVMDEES

Measured: IC50

T1 sequence (P15056 whole entry): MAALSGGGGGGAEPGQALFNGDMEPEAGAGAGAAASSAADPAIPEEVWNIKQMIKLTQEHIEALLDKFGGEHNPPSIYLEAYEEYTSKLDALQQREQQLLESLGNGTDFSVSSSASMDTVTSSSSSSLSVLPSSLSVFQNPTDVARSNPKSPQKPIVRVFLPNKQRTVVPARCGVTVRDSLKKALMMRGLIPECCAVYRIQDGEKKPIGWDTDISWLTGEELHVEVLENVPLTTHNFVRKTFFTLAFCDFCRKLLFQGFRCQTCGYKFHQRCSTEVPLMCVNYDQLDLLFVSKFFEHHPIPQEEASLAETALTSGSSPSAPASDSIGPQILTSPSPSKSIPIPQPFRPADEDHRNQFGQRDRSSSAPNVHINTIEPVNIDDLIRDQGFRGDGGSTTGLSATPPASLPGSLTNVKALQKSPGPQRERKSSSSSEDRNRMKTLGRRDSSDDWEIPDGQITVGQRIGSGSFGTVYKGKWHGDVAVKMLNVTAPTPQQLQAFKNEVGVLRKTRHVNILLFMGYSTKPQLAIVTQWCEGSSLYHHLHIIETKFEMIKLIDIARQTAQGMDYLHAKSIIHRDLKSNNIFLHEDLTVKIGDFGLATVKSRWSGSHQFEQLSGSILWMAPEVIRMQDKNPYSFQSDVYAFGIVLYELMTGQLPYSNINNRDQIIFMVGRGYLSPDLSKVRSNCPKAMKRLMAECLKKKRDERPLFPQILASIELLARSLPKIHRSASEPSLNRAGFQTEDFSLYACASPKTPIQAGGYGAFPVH

CC(=O)Nc1cccc(-c2cnc3[nH]cc(C(=O)c4cc(O)ccc4F)c3c2)c1 [Compound P-0001]
not listed: Btk
≤ 10 µM: all other assays above

Nc1cccc(-c2cnc3[nH]cc(C(=O)c4cccc(O)c4)c3c2)c1 [Compound P-0003]
not listed: Btk
≤ 10 µM: all other assays above

CCCS(=O)(=O)Nc1ccc(F)c(C(=O)c2c[nH]c3ncccc23)c1F [Compound P-0007, Propane-1-sulfonic acid [2,4-difluoro-3-(1H-pyrrolo[2,3-b]pyridine-3-carbonyl)-phenyl]-amide]
not listed: Ret
≤ 10 µM: all other assays above

O=C(O)/C=C/c1cccc(-c2cnc3[nH]cc(C(=O)c4cc(O)ccc4F)c3c2)c1 [Compound P-0010]
not listed: Kdr
≤ 10 µM: all other assays above

O=C(c1ccc(O)cc1Cl)c1c[nH]c2ncccc12 [Compound P-0021]
not listed: Ret
≤ 10 µM: all other assays above

CS(=O)(=O)c1cccc(-c2cnc3[nH]cc(C(=O)c4cccc(O)c4F)c3c2)c1 [Compound P-0026, (2-Fluoro-3-hydroxy-phenyl)-[5-(3-methanesulfonylphenyl)1H-pyrrolo[2,3-b]pyridin-3-yl]-methanone]
not listed: Kdr
≤ 10 µM: all other assays above

O=C(c1cc(O)ccc1F)c1c[nH]c2ncc(-c3cccs3)cc12 [Compound P-0032]
not listed: Btk
≤ 10 µM: all other assays above

O=C(c1cccc(O)c1)c1c[nH]c2nccc(-c3cc(F)cc(F)c3)c12 [Compound P-0039]
≤ 10 µM: FGFR1 | Kdr | Ret

Oc1cccc(Cc2c[nH]c3ncc(-c4ccsc4)cc23)c1 [Compound P-0056]
≤ 10 µM: B-Raf | FGFR1 | Kdr | Ret

O=C(c1cccc(O)c1F)c1c[nH]c2ncc(Br)cc12 [Compound P-0067, (5-bromo-1H-pyrrolo[2,3-b]pyridin-3-yl)-(2-fluoro-3-hydroxy-phenyl)-methanone]
not listed: Ret
≤ 10 µM: all other assays above

O=C(c1cc(O)ccc1F)c1c[nH]c2ncc(Br)cc12 [Compound P-0068, (5-Bromo-1H-pyrrolo[2,3-b]pyridin-3-yl)-(2-fluoro-5-hydroxy-phenyl)-methanone]
not listed: Ret
≤ 10 µM: all other assays above

Cc1ccc(S(=O)(=O)NCc2c[nH]c3nccc(-c4cccc(C#N)c4)c23)cc1 [Compound P-0072]
≤ 10 µM: Btk | FGFR1 | Fms | Ret

Oc1ccc(F)c(Cc2c[nH]c3ncc(-c4cccnc4)cc23)c1F [Compound P-0078, 2,4-difluoro-3-(5-pyridin-3-yl-1H-pyrrolo[2,3-b]pyridin-3-ylmethyl)-phenol]
not listed: Btk
≤ 10 µM: all other assays above

Oc1cc(O)cc(Cc2c[nH]c3ncc(-c4ccsc4)cc23)c1 [Compound P-0093]
not listed: Ret
≤ 10 µM: all other assays above

OC(c1c(F)ccc(F)c1F)c1c[nH]c2ncc(-c3cccnc3)cc12 (centres unmarked) [Compound P-0101]
≤ 10 µM: FGFR1 | Fms | Kdr | Ret

Cc1ccccc1C(=O)c1c[nH]c2nccc(-c3cccc(NS(C)(=O)=O)c3)c12 [Compound P-0109]
≤ 10 µM: Btk | Ret

Cc1c(O)cccc1C(=O)c1c[nH]c2ncc(-c3cccs3)cc12 [Compound P-0114, (3-Hydroxy-2-methyl-phenyl)-(5-thiophen-2-yl-1H-pyrrolo[2,3b]pyridin-3-yl)-methanone]
not listed: Btk
≤ 10 µM: all other assays above

Oc1ccc(F)c(Cc2c[nH]c3ncc(Br)cc23)c1F [Compound P-0122, 3-(5-Bromo-1H-pyrrolo[2,3-b]pyridin-3-ylmethyl)-2,4-difluoro-phenol]
≤ 10 µM: B-Raf | Kdr | Ret

CN(C)S(=O)(=O)Nc1ccc(F)c(Cc2c[nH]c3ncc(-c4cccnc4)cc23)c1F [Compound P-0166]
≤ 10 µM: B-Raf | Btk | FGFR1 | Fms

CS(=O)(=O)c1cccc(-c2ccnc3[nH]cc(C(=O)c4cc(F)ccc4F)c23)c1 [Compound P-0171]
≤ 10 µM: B-Raf | Btk | FGFR1 | Ret

O=C(c1cccc(O)c1)c1c[nH]c2ncc(-c3cccs3)cc12 [Compound P-0196]
not listed: Btk
≤ 10 µM: all other assays above

O=C(Nc1ccc(Cc2c[nH]c3ncccc23)cc1)Nc1cccc(C(F)(F)F)c1 [Compound P-0262, 1-[4-(1H-Pyrrolo[2,3-b]pyridin-3-ylmethyl)-phenyl]-3-(3-trifluoromethyl-phenyl)-urea]
not listed: Btk
≤ 10 µM: all other assays above

O=C(c1cccc(O)c1F)c1c[nH]c2ncc(-c3cccs3)cc12 [Compound P-0521, (2-fluoro-3-hydroxy-phenyl)-(5-thiophen-2-yl-1H-pyrrolo[2,3-b]pyridin-3-yl)-methanone]
≤ 10 µM: B-Raf | FGFR1 | Kdr | Ret

CCCS(=O)(=O)Nc1ccc(F)c(C(=O)c2c[nH]c3ncc(OC)cc23)c1F [Compound P-0806, Propane-1-sulfonic acid [2,4-difluoro-3-(5-methoxy-1H-pyrrolo[2,3-b]pyridine-3-carbonyl)-phenyl]-amide]
not listed: Ret
≤ 10 µM: all other assays above

CCCCNC(=O)Nc1ccc(F)c(C(=O)c2c[nH]c3ncc(-c4cccnc4)cc23)c1F [Compound P-1318, 1-Butyl-3-[2,4-difluoro-3-(5-pyridin-3-yl-1H-pyrrolo[2,3-b]pyridine-3-carbonyl)-phenyl]-urea]
≤ 10 µM: B-Raf | FGFR1 | Fms | Kdr

COc1cccc(C(=O)c2c[nH]c3ncc(-c4cccc(NC(C)=O)c4)cc23)c1F [Compound P-1336, N-{3-[3-(2-Fluoro-3-methoxy-benzoyl)-1H-pyrrolo[2,3-b]pyridin-5-yl]-phenyl}-acetamide]
≤ 10 µM: B-Raf | Btk | FGFR1 | Fms

COc1cc(OC)cc(C(=O)c2c[nH]c3ncc(-c4cccc(NS(C)(=O)=O)c4)cc23)c1 [Compound P-1426, N-{3-[3-(3,5-Dimethoxy-benzoyl)-1H-pyrrolo[2,3-b]pyridin-5-yl]-phenyl}-methanesulfonamide]
≤ 10 µM: Btk | FGFR1 | Fms | Kdr
